Our source for the Kd, fluorescence enhancement and stability values is patent US5545517A, “Selective metal ion detection using a photoluminescent indicator binding to a macromolecule-metal ion complex” (The United States of America as represented by the …, priority 1994, dated 1996).

In general, Kd refers to the concentration at which binding is half-saturated.

Series [1] concerns the target T1, carbonic anhydrase from bovine erythrocytes (Bos taurus, UniProt P00921).
T1 construct: purchased Sigma C-7500; host or cells: bovine erythrocytes
The experiment in a line: binding of dansylamide to the zinc-containing carbonic anhydrase active site (fluorescence titration). The settings on record: binding site when zinc is present there. The protocol: N,N-dimethyl-1-aminonaphthalene-8-sulfonamide (dansylamide) was from Aldrich, HEPES (Ultrapure grade) was from Baker, and other buffer salts were reagent grade or better. […] Following passage through the chelating resin, solutions were stored in clean polyethylene containers and pipetted using plastic pipets or metal-free pipet tips; fluorescence was measured in cuvettes made of synthetic fused silica. Carbonic anhydrase from bovine erythrocytes (Sigma C-7500) was stripped of its Zn atom by prolonged dialysis at 4 C. in 50 mM sodium acetate pH 5.4 buffer containing approximately 5 mM 2,6-dipicolinic acid (Aldrich). […]
Fluorescence emission spectra and emission intensities in cuvettes were measured on a modified ISS K2 fluorometer 60 (Champaign, Ill.) using a Liconix 4114NB laser 36 emitting approximately 5 mW multimode at 326n m for excitation. […] For some measurements through the fiber the off-axis paraboloid, objective lens, and fiber holder were mounted in the ISS fluorometer in place of the cuvette holder, as described elsewhere (Thompson, R. B., Lakowicz, J. R., Anal. Chem 65 853-57 (1993)); in these experiments the chopper and lock-in were not used and the DC output of the Hamamatsu R928 photodetector was directly quantitated on the instrument's digital voltmeter after amplification. […]

Another series deals with carbonic anhydrase. As to conditions: observed by Chen titrating the enzyme with dansylamide; cited from earlier work.
Series [2] in a line: storage stability in solution. Type of series: physicochemical. The settings on record: dilute solution, under these conditions (4° C.).

T1 sequence (P00921 2-260 limits assumed): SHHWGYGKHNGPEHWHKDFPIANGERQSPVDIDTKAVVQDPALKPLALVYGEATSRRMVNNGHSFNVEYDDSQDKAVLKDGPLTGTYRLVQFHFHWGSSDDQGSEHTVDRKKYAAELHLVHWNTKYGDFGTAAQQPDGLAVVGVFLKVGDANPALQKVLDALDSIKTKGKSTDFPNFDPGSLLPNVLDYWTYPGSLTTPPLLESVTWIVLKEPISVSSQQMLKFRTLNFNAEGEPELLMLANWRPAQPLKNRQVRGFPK

`CN(C)c1cccc2c(S(N)(=O)=O)cccc12` [dansylamide] had a Kd in series [1] of 240 nM. Besides, in the series on carbonic anhydrase, the fluorescence enhancement was 15 fold. Moreover, the stability result in series [2] is “not stable for more than a week”.
